In ChEMBL document CHEMBL2346612, “Pregna-5,17(20)-dien-21-oyl amides affecting sterol and triglyceride biosynthesis in Hep G2 cells” (Bioorg Med Chem Lett, 2013):
Calls of active or inactive are those of the source. The rule behind the calls is not given here.

Columns and labels:
HepG2 [1] = test: Effect on triglyceride biosynthesis in human HepG2 cells at 30 uM; assay type: functional, cell-based
[2] = Cytotoxicity against human HepG2 cells assessed as cell viability after 48 hrs by MTT assay; assay type: cell-based; set-up: concentration or dose not given beside the values; settings: read-out: Activity
HepG2 [3] = test: Effect on sterol biosynthesis in human HepG2 cells at 30 uM; assay type: functional, cell-based
HepG2 [4] = test: Stimulation of triglyceride biosynthesis in human HepG2 cells incubated at 5 uM for 14 hrs followed by sodium [14C]-acetate addition measured after 4 hrs; assay type: functional, cell-based
HepG2 [5] = test: Reduction in cholesterol biosynthesis in human HepG2 cells incubated at 5 uM for 14 hrs followed by sodium [14C]-acetate addition measured after 4 hrs; assay type: functional, cell-based
HepG2 [6] = test: Reduction in cholesterol biosynthesis in human HepG2 cells incubated at 2 uM for 14 hrs followed by sodium [14C]-acetate addition measured after 4 hrs; assay type: functional, cell-based
HepG2 [7] = test: Cytotoxicity against human HepG2 cells assessed as cell viability up to 2 uM after 48 hrs by MTT assay; assay type: cell-based; settings: hepg2, 48 h
HepG2 [8] = test: Stimulation of triglyceride biosynthesis in human HepG2 cells incubated at 2 uM for 14 hrs followed by sodium [14C]-acetate addition measured after 4 hrs; assay type: functional, cell-based

Structure (SMILES) | Activity (HepG2 [1]) | viability at 48 h [2] | Activity (HepG2 [3]) | Activity (HepG2 [4]) | Activity (HepG2 [5]) | Activity (HepG2 [6]) | Activity (HepG2 [7]) | Activity (HepG2 [8])
C[C@]12CC[C@H](O)CC1=CC[C@@H]1[C@@H]2CC[C@]2(C)/C(=C/C(=O)NCCO)CC[C@@H]12 | inactive | > 70% | inactive | Active | Active |  |  | 
CC(C)(CO)NC(=O)/C=C1/CC[C@H]2[C@@H]3CC=C4C[C@@H](O)CC[C@]4(C)[C@H]3CC[C@]12C | inactive | > 70% | inactive | inactive | inactive |  |  | 
C[C@H](CCCC(C)(C)O)[C@H]1CC[C@H]2[C@@H]3CC=C4C[C@@H](O)CC[C@]4(C)[C@H]3CC[C@]12C | inactive | > 70% | inactive |  |  | Active | Non-toxic | Active
CN(C)C(=O)CNC(=O)/C=C1\CC[C@H]2[C@@H]3CC=C4C[C@@H](O)CC[C@]4(C)[C@H]3CC[C@]12C | inactive | > 70% | inactive | Active | Active |  |  | 
CC(CO)(CO)NC(=O)/C=C1/CC[C@H]2[C@@H]3CC=C4C[C@@H](O)CC[C@]4(C)[C@H]3CC[C@]12C | inactive | > 70% | inactive | inactive | inactive |  |  | 
C[C@]12CC[C@H](O)CC1=CC[C@@H]1[C@@H]2CC[C@]2(C)/C(=C\C(=O)NC(CO)(CO)CO)CC[C@@H]12 | inactive | > 70% | inactive | inactive | inactive |  |  | 
CC(CO)(CO)NC(=O)/C=C1\CC[C@H]2[C@@H]3CC=C4C[C@@H](O)CC[C@]4(C)[C@H]3CC[C@]12C | inactive | > 70% | inactive |  |  |  |  | 
C[C@]12CC[C@H](O)CC1=CC[C@@H]1[C@@H]2CC[C@]2(C)/C(=C/C(=O)NC(CO)(CO)CO)CC[C@@H]12 | inactive | > 70% | inactive |  |  |  |  | 
CC(C)(CO)NC(=O)/C=C1\CC[C@H]2[C@@H]3CC=C4C[C@@H](O)CC[C@]4(C)[C@H]3CC[C@]12C | inactive | > 70% | inactive |  |  |  |  | 
COC(=O)CNC(=O)/C=C1\CC[C@H]2[C@@H]3CC=C4C[C@@H](O)CC[C@]4(C)[C@H]3CC[C@]12C | inactive | > 70% | inactive | Active | inactive |  |  | 
C[C@]12CC[C@H](O)CC1=CC[C@@H]1[C@@H]2CC[C@]2(C)/C(=C\C(=O)NCCO)CC[C@@H]12 | inactive | > 70% | inactive | inactive | inactive |  |  | 
CC(C)CCNC(=O)/C=C1/CC[C@H]2[C@@H]3CC=C4C[C@@H](O)CC[C@]4(C)[C@H]3CC[C@]12C | inactive | > 70% | inactive | inactive | inactive |  |  | 
CC(C)CCNC(=O)/C=C1\CC[C@H]2[C@@H]3CC=C4C[C@@H](O)CC[C@]4(C)[C@H]3CC[C@]12C | inactive | > 70% | inactive | Active | Active |  |  | 
